Measured values: patent US4113944A, “Cephalosporin-type antibiotics and process for producing the same” (Meiji Seika Kaisha, Ltd., priority 1974, dated 1978)
≈ marks a conversion by molar mass, not a printed value. Where two headings read alike, the source gives them in different places.

How the values were obtained:
[1] = acute toxicity in mice (LD50); details: mouse, in vivo
[2] = system: Escherichia coli; test: Minimum Inhibitory Concentration (antimicrobial activity), Escherichia coli; format: cell-based
[3] = system: Proteus vulgaris; test: Minimum Inhibitory Concentration (antimicrobial activity), Proteus vulgaris; format: cell-based; details: read-out: Minimum Inhibitory Concentration (MIC)
[4] = system: Salmonella; test: Minimum Inhibitory Concentration (antimicrobial activity), Salmonella; format: cell-based
[5] = system: Salmonella typhi W-901-10; test: ED50 in mice suffering from infectious disease, Salmonella typhi W-901-10; format: in vivo; details: Salmonella enterica, iv
Description: (§1) The ED50 values of the above obtained compounds were determined by intravenously administering the compounds to mice suffering from infectious diseases caused by various bacteria and were compared with those obtained using known antibiotics.

[6] = system: Proteus vulgaris C-73-9; test: ED50 in mice suffering from infectious disease, Proteus vulgaris C-73-9; format: in vivo
Description: as §1

[7] = system: Salmonella enteritidis No.11; test: ED50 in mice suffering from infectious disease, Salmonella enteritidis No.11; format: in vivo; details: Salmonella enterica
Description: as §1

[8] = system: Staphylococcus aureus Smith S-424; test: ED50 in mice suffering from infectious disease, Staphylococcus aureus Smith S-424; format: in vivo
Description: as §1

[9] = system: Staphylococcus aureaus; test: Minimum Inhibitory Concentration (antimicrobial activity), Staphylococcus aureus; format: cell-based
[10] = system: Pseudomonas aeruginose; test: Minimum Inhibitory Concentration (antimicrobial activity), Pseudomonas; format: cell-based
[11] = system: Kurebusiera pneumonia; test: Minimum Inhibitory Concentration (antimicrobial activity), Kurebusiera pneumonia; format: cell-based
[12] = C739, Proteus vulgaris C-73-9 (strains produced from Cephalosporinase), intravenous, mice, Example 1 as disodium salt, read-out: ED50
[13] = Salmonella enteritidis No.11, intravenous, mice, Example 1 as disodium salt, read-out: ED50
[14] = acute toxicity, mice, Example 1 as disodium salt, read-out: LD50

| SMILES | MIC [2] | MIC [3] | MIC [4] | other results |
| --- | --- | --- | --- | --- |
| O=C(Cc1cccs1)N[C@@H]1C(=O)N2C(C(=O)[O-])=C(C[n+]3ccccc3)CS[C@H]12 [Cephaloridine] |  |  |  | LD50 [1]: 3840 mg/kg |
| O=C(O)Cc1nnc(SCC2=C(C(=O)O)N3C(=O)C(NC(=O)Cc4cccs4)[C@H]3SC2)[nH]1 (some centres unmarked) [Example 1, 7-(2-thienylacetamido)-3-(5-carboxymethyl-1,3,4-triazol-2-yl)thiomethyl-3-cephem-4-carboxylic acid] | 6.25 µg/mL (≈ 12.6 µM) | 3.13 µg/mL (≈ 6.32 µM) | 0.78 µg/mL (≈ 1.57 µM) | ED50 [5]: 52 mg/kg; ED50 [6, 12]: 7.3 mg/kg; ED50 [7, 13]: 27 mg/kg; ED50 ([8]; SMITHS424, Staphylococcus aureus Smith S-424, intravenous, mice, Example 1 as dipotassium salt, read-out: ED50): 8.5 mg/kg; LD50 [1, 14]: 6300 mg/kg |
| O=C(O)CCc1nnc(SCC2=C(C(=O)O)N3C(=O)C(NC(=O)Cc4cccs4)[C@H]3SC2)[nH]1 (some centres unmarked) [Example 2, 7-(2-thienylacetamido)-3-[5-(2-carboxyethyl)-1,3,4-triazol-2-yl]thiomethyl-3-cephem-4-carboxylic acid] | 6.25 µg/mL (≈ 12.3 µM) | 0.2 µg/mL (≈ 0.392 µM) | 0.78 µg/mL (≈ 1.53 µM) |  |
| Cn1c(CCC(=O)O)nnc1SCC1=C(C(=O)O)N2C(=O)C(NC(=O)Cc3cccs3)[C@H]2SC1 (some centres unmarked) [Example 3, 7-(2-thienylacetamido)-3-[5-(2-carboxyethyl)-1-methyl-1,3,4-triazol-2-yl]thiomethyl-3-cephem-4-carboxylic acid] | 1.56 µg/mL (≈ 2.98 µM) | 0.78 µg/mL (≈ 1.49 µM) | 0.78 µg/mL (≈ 1.49 µM) |  |
| O=C(O)CCc1nnc(SCC2=C(C(=O)O)N3C(=O)C(NC(=O)Cc4cccs4)[C@H]3SC2)n1-c1ccccc1 (some centres unmarked) [Example 4, 7-(2-thienylacetamido)-3-[5-(2-carboxyethyl)-1-phenyl-1,3,4-triazol-2-yl]thiomethyl-3-cephem-4-carboxylic acid] | 25 µg/mL (≈ 42.7 µM) | 1.56 µg/mL (≈ 2.66 µM) | 25 µg/mL (≈ 42.7 µM) |  |
| Cn1c(CC(=O)O)nnc1SCC1=C(C(=O)O)N2C(=O)C(NC(=O)Cc3cccs3)[C@H]2SC1 (some centres unmarked) [Example 5, 7-(2-thienylacetamido)-3-(5-carboxymethyl-1-methyl-1,3,4-triazol-2-yl)-thiomethyl-3-cephem-4-carboxylic acid] | 3.13 µg/mL (≈ 6.14 µM) | 0.2 µg/mL (≈ 0.392 µM) | 0.78 µg/mL (≈ 1.53 µM) |  |
| O=C(Cc1cccs1)NC1C(=O)N2C(C(=O)O)=C(CSc3nnc(C(=O)O)[nH]3)CS[C@H]12 (some centres unmarked) [Example 6, 7-(2-thienylacetamido)-3-(5-carboxy-1,3,4-triazol-2-yl)thiomethyl-3-cephem-4-carboxylic acid] | 6.25 µg/mL (≈ 13 µM) | 0.2 µg/mL (≈ 0.415 µM) | 3.13 µg/mL (≈ 6.5 µM) |  |
| Cn1c(SCC2=C(C(=O)O)N3C(=O)C(NC(=O)Cc4cccs4)C3SC2)nnc1C(=O)O (centres unmarked) [Example 7, 7-(2-thienylacetamido)-3-(5-carboxy-1-methyl-1,3,4-triazol-5-yl)-thiomethyl-3-cephem-4-carboxylic acid] | 1.56 µg/mL (≈ 3.15 µM) | 0.39 µg/mL (≈ 0.787 µM) | 0.78 µg/mL (≈ 1.57 µM) |  |
| O=C(Cc1cccs1)NC1C(=O)N2C(C(=O)O)=C(CSc3nnc(C(=O)O)n3-c3ccccc3)CSC12 (centres unmarked) [Example 8, 7-(2-thienylacetamido)-3-(5-carboxy-1-phenyl-1,3,4-triazol-5-yl)thiomethyl-3-cephem-4-carboxylic acid] | 25 µg/mL (≈ 44.8 µM) | 0.78 µg/mL (≈ 1.4 µM) | 12.5 µg/mL (≈ 22.4 µM) |  |
| Cn1cnnc1SCC1=C(C(=O)O)N2C(=O)C(NC(=O)Cc3cccs3)C2SC1 (centres unmarked) [Example 22, 7-(2-thienylacetamide)-3-(1-methyl-1,3,4-triazol-5-yl)thiomethyl-3-cephem-4-carboxylic acid] | 6.25 µg/mL (≈ 13.8 µM) | 50 µg/mL (≈ 111 µM) | 1.56 µg/mL (≈ 3.45 µM) | MIC [9]: 0.78 µg/mL (≈ 1.73 µM); MIC [10]: 1.56 µg/mL (≈ 3.45 µM); MIC [11]: 0.78 µg/mL (≈ 1.73 µM) |
| CC(=O)OCC1=C(C(=O)O)N2C(=O)[C@@H](NC(=O)Cc3cccs3)[C@H]2SC1 [Sodium Cephalotin, 7-(2-thienylacetamido)cephalosporanic acid, reference compound] | 6.25 µg/mL | 2.5 µg/mL | 3.13 µg/mL | ED50 [5]: 200 mg/kg; ED50 ([6]; Proteus vulgaris, C739, iv): 14 mg/kg; ED50 ([7]; ENTERITIDIS, iv): 480 mg/kg; ED50 ([8]; Staphylococcus aureus, SMITHS424, iv): 19 mg/kg; LD50 [1, 14]: 5180 mg/kg |
| Cc1nnc(SCC2=C(C(=O)O)N3C(=O)[C@@H](NC(=O)Cn4cnnn4)[C@H]3SC2)s1 [Sodium Cephazoline] |  |  |  | ED50 [6, 12]: 18.5 mg/kg; ED50 [7, 13]: 130 mg/kg; LD50 [1, 14]: 3130 mg/kg |
